The values below come from US20040214832A1, “Piperazine derivative renin inhibitors” (priority 2003, published 2004).

Structures are written as SMILES. Where only a bound is given, the exact number is not on record here.

Usually IC50 stands for the concentration that gives 50% inhibition.

This test concerns the target T1, human renin (Homo sapiens, UniProt P00797).
T1 sequence (P00797 67-406): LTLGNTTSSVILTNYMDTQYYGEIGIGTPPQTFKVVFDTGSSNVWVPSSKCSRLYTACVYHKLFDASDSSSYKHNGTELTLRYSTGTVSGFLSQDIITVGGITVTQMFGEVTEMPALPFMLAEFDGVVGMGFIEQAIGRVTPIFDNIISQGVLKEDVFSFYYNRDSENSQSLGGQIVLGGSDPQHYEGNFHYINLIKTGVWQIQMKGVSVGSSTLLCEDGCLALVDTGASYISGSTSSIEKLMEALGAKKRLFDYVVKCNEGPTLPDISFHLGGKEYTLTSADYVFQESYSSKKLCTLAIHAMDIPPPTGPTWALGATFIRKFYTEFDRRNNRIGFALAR
The test can be described thus: Determination of renin IC50 by tGFP FRET assay. The format is biochemical. The following applies: Human recombinant renin, tandem GFP substrate 650 nM, 60 min incubation with compound, pH 7.4, 11-point curve. From the text:
Determination of Renin IC50 by tGFP FRET Assay
The tGFP FRET (fluorescence resonance energy transfer) assay utilizes a tandem GFP substrate (60 kDa, Discovery Technologies) containing nine amino acid recognition sequences for human renin flanked by two GFP proteins. The assay is used to determine the ability of a compound to act as an inhibitor of renin enzymatic activity by determination of that concentration of test compound that inhibits by 50% (IC50) the ability of renin to cleave the tandem GFP substrate. The IC50 values are determined over an 11-point curve at concentrations of 100 μM to 1 pM. Each compound concentration used to construct the curve was dependent on renin inhibitor potency. For example, subnanomolar IC50 values were determined over an 11-point curve at concentrations of 10 μM to 1 pM. All other IC50 values were determined over an 11-point curve at concentrations of 100 μM to 0.0065 μM. The concentrations were achieved by diluting a 9.1 nM stock of Human recombinant renin in the appropriate amount of buffer containing 50 mM HEPES, 1 mM EDTA, 1% PEG (8000 MW), 1 mM DTT, 0.1% BSA, pH 7.4 to achieve the final concentration of 50.4 μIU. The tGFP substrate stock solution of 43 μM was diluted with the appropriate amount of the above buffer to obtain the final concentration of 650 nM. In addition, 1 μl of the compound is diluted in dimethylsulfoxide (DMSO) to represent an […] log scale (5% final). The SR renin and compound are added to a 384 capacity plate by an automated robot (BIOMEK). The plate is incubated for 60 minutes; upon completion the tGFP substrate is added.
The IC50 is determined by monitoring the increase in […] at 432/432 nm excitation, 530/475 nm emission with a cutoff at 515/455 nm, in a fluorometric plate reader.
Regarding `COc1ccccc1CSCCCOc1ccc(N2C(=O)CNC[C@@H]2COc2ccc3ccccc3c2)cc1` [Example 101, (6R)-1-{4-[3-(2-methoxybenzylsulfanyl)-propoxy]-phenyl}-6-(naphthalene-2-yloxymethyl)-piperazin-2-one], the half-maximal inhibitory concentration (IC50) was greater than 1000 nM.
For `COC(=O)CN1C(=O)CCc2ccc(OC[C@H]3CNCC(=O)N3c3ccc(OCCCOCc4ccccc4OC)cc3)cc21` [Example 116, [7-([2R]-1-{4-[3-(2-Methoxybenzyloxy)-propoxy]-phenyl}-6-oxopiperazin-2-ylmethoxy)-2-oxo-3,4-dihydro-2H-quinolin-1-yl]-acetic acid methyl ester], the IC50 came out at 4 nM.
As to `c1ccc(COc2ccc(N3CCNC[C@@H]3COc3ccc4ccccc4c3)cc2)cc1` [Example 35, (2R)-1-(4-benzyloxyphenyl)-2-(naphthalen-2-yloxymethyl)-piperazine], the IC50 was greater than 1000 nM.
Then `COc1ccccc1COCCCOc1ccc(N2C(=O)CNC[C@@H]2COCc2ccc(F)cc2Cl)cc1` [Example 22, (6R)-6-(2-chloro-4-fluorobenzyloxymethyl)-1-{4-[3-(2-methoxybenzyloxy)-propoxy]-phenyl}-piperazin-2-one], with greater than 1000 nM.
On to `O=C(NCCOc1ccccc1)c1ccc(N2C(=O)CNC[C@@H]2COc2ccc3ccccc3c2)cc1` [Example 53, 4-[(2R)-2-(naphthalen-2-yloxymethyl)-6-oxopiperazin-1-yl]-N-(2-phenoxyethyl)-benzamide], for which the 50% inhibitory concentration (IC50) was greater than 1000 nM.
Take `COc1ccccc1COCCCOc1ccc(N2C(=O)CNC[C@@H]2COc2ccc3c(ccn3CCNC(C)=O)c2)cc1` [Example 120, N-{2-[5-([2R]-1-{4-[3-(2-Methoxybenzyloxy)-propoxy]-phenyl}-6-oxopiperazin-2-ylmethoxy)-indol-1-yl]-ethyl}-acetamide]: the IC50 turned out to be 4.66 nM.
For `COc1cccc(COCCCOc2ccc(N3CCNC[C@@H]3COc3ccc4ccccc4c3)cc2)c1` [Example 89, (2R)-1-{4-[3-(3-methoxybenzyloxy)-propoxy]-phenyl}-2-(naphthalen-2-yloxymethyl)-piperazine], the half-inhibitory concentration (IC50) came to 23700 nM.
For the molecule `COc1ccccc1CCOCCOc1ccc(N2CCNC[C@@H]2COc2ccc3ccccc3c2)cc1` [Example 104], the half-inhibitory concentration (IC50) was found to be 1070 nM.
Then `COc1ccc(COCCCOc2ccc(N3CCNC[C@@H]3COCc3ccc(OC)cc3)cc2)cc1` [Example 65, (2R)-2-(4-methoxybenzyloxymethyl)-1-{4-[3-(4-methoxybenzyloxy)-propoxy]-phenyl}-piperazine], with greater than 1000 nM; and `COc1ccccc1COCCCOc1ccc(N2C(=O)CNC[C@@H]2COc2ccc3c(c2)N(CCO)CCC3)cc1` [Example 57, (6R)-6-[1-(2-hydroxyethyl)-1,2,3,4-tetrahydroquinolin-7-yloxymethyl]-1-{4-[3-(2-methoxybenzyloxy)-propoxy]-phenyl}-piperazin-2-one], with 64 nM; and `c1ccc(COCCCOc2ccc(N3CCNC[C@@H]3COc3ccc4ccccc4c3)cc2)cc1` [Example 38, (2R)-1-[4-(3-benzyloxypropoxy)-phenyl]-2-(naphthalen-2-yloxymethyl)-piperazine], with 1420 nM.
With `COc1ccccc1COCCCOc1ccc(N2C(=O)CNC[C@@H]2COCc2ccccc2)cc1` [Example 45, (6R)-6-benzyloxymethyl-1-{4-[3-(2-methoxybenzyloxy)-propoxy]-phenyl}-piperazin-2-one], the concentration for half-maximal inhibition (IC50) stood at 7010 nM.
Take `COc1ccccc1COCCCOc1ccc(N2CCNC[C@@H]2COc2ccc3ccccc3c2)cc1` [Example 32, (2R)-1-{4-[3-(2-methoxybenzyloxy)-propoxy]-phenyl}-2-(naphthalen-2-yloxymethyl)-piperazine]: the IC50 was found to be 153 nM.
Consider `COc1ccccc1COCCCOc1ccc(N2C(=O)CNC[C@@H]2CNC(=O)c2ccccc2F)cc1` [Example 86, 2-fluoro-N-([2R]-1-{4-[3-(2-methoxybenzyloxy)-propoxy]-phenyl}-6-oxopiperazin-2-ylmethyl)-benzamide], for which the IC50 is greater than 1000 nM.
